Peptide text beside a SMILES is read from it. * marks the point of attachment. Cbz = O=C(OCc1ccccc1)*; CH2F = FC*
Key:
BaF-FLT3(D835Y) = experiment: Cell viability assay (Cell Titer-Glo), BaF3 cells expressing FLT3; assay type: cell-based; conditions: Mus musculus
MOLM-13 xenograft model = experiment: Disseminated MOLM-13 xenograft survival study; assay type: in vivo, mice; conditions: MOLM-13, NOD/SCID mice; single agent PO qd×21: midostaurin 100 mg/kg, gilteritinib 4 mg/kg, venetoclax 100 mg/kg; vehicle=19 days
Protocol: (§1) LEED models oral administration of AZA, while HELD models intravenous or subcutaneous administration of AZA.
The animals were fed ad libitum water (reverse osmosis, 1 ppm Cl), and NIH 31 Modified and Irradiated Lab Diet® consisting of 18.0% crude protein, 5.0% crude fat, and 5.0% crude fiber. The mice were housed on irradiated Enrich-o'cobs™ Laboratory Animal Bedding in static microisolators on a 12-hour light cycle at 20-22° C. (68-72° F.) and 40-60% humidity.
(§2) On each day of dosing, an appropriate amount of gilteritinib was dissolved in 0.5% methylcellulose in DI water to yield a dosing solution at 0.4 mg/mL. Each week, an appropriate amount of venetoclax was dissolved in 10% ethanol:30% PEG400:60% phosal 50 propylene glycol to yield a dosing solution at 10 mg/mL. […] Each test mouse received 5×10^6 MOLM-13 cells or 10^7 MV4-11 cells (0.2 mL cell suspension) by tail vein injection. Dosing was initiated three days after tumor cell inoculation, which was designated as Day 1 of the study. NOD/SCID mice (n=9-12/group) were randomized according to body weight and dosed. […] Vehicle was administered both IP and PO. The dosing volume for all treatments was 10 mL/kg, scaled to the weight of each individual animal.
(§3) Animals were monitored individually for an endpoint of moribundity due to progression of the leukemia. Full hind limb paralysis, severe ocular proptosis, or moribundity was considered sufficient for euthanasia due to tumor progression. Moribund animals were defined as sick animals unable to reach food and water. These deaths were classified as death on survival study. The time to endpoint (TTE), in days, was recorded for each mouse that died of its disease or was euthanized due to extensive tumor progression. […] An animal classified as having died from treatment-related (TR) causes was assigned a TTE value equal to the day of death. An animal classified as having died from non-treatment-related (NTR) causes, or used for sampling before endpoint, was excluded from TTE calculations and all further analyses. The median TTE value was calculated for each group. The median TTE of treated mice was expressed as a percentage of the median TTE of the control mice (% T/C), and the increase in life span (ILS) was calculated as: ILS=% T/C−100%, where T=median TTE treated, and C=median TTE control. Thus, if T=C, ILS=0%.
Animals were weighed daily on Days 1-5, then twice per week until the completion of the study. […] Individual body weight loss was monitored as per protocol and any animal that exceeded the limits for acceptable body weight loss was euthanized. Group mean body weight loss also was monitored as per protocol. Dosing was suspended in any group that exceeded the limits for acceptable mean body weight loss. If mean body weight recovered, then dosing may be resumed in that group, but at a lower dosage or less frequent dosing schedule. Acceptable toxicity for the maximum tolerated dose was defined as a group mean body-weight loss of less than 20% during the study and not more than one TR death among ten treated animals. […] A death was classified as NTR if there was no evidence that death was related to treatment side effects or tumor progression. Non-treatment-related deaths may be further characterized based on cause of death. A death may be classified as NTRa if it resulted from an accident or human error. A death may be classified as NTRu if the cause of death is unknown and there is no available evidence of death related to treatment side effects, metastasis, accident or human error, although death due to these etiologies cannot be excluded. Survival was analyzed by the Kaplan-Meier method, based on TTE values. The logrank (Mantel-Cox) and Gehan-Breslow-Wilcoxon tests determined the significance of the difference between the overall survival experiences (survival curves) of two groups, based on TTE values.
These experiments were repeated with a second FLT3-ITD cell line, MOLM-13.

BaF-FLT3(WT) = experiment: Cell viability assay (Cell Titer-Glo), BaF3 cells expressing FLT3; assay type: cell-based; conditions: Mus musculus
BaF-FLT3-ITD = experiment: as above; assay type: cell-based; conditions: Mus musculus
MV4-11 xenograft models = experiment: Disseminated MV4-11 xenograft survival study; assay type: in vivo; conditions: MV4-11, NCG mice; single agent PO qd×21: venetoclax 100 mg/kg, midostaurin 100 mg/kg; vehicle=29.5
Protocol: as §1
as §2, with “NOD/SCID mice (n=9-12/group) were randomized according to body weight and dosed.” left out
as §3
Animals were weighed daily on Days 1-5, then twice per week until the completion of the study. […] Individual body weight loss was monitored as per protocol and any animal that exceeded the limits for acceptable body weight loss was euthanized. Group mean body weight loss also was monitored as per protocol. Dosing was suspended in any group that exceeded the limits for acceptable mean body weight loss. If mean body weight recovered, then dosing may be resumed in that group, but at a lower dosage or less frequent dosing schedule. […] Survival was analyzed by the Kaplan-Meier method, based on TTE values. The logrank (Mantel-Cox) and Gehan-Breslow-Wilcoxon tests determined the significance of the difference between the overall survival experiences (survival curves) of two groups, based on TTE values.

MCL-1 = experiment: Western blot of MCL-1 in AML cell lines; assay type: cell-based; conditions: MV4-11; 20 μM Z-VAD-FMK for 1 hour before 5-azacytidine for another 16 hours
Protocol: Lysates were quantified using a bicinchoninic acid (BCA) kit (Piece/Thermo Fisher, Waltham, MA). 20 to 30 μg protein was resolved on a 4-12% SDS-PAGE gel, transferred to PVDF membranes (80V/90 minute by wet-transfer), and blocked with Oddysey TBS blocking buffer for 1 hour and then probed with appropriate primary antibodies overnight at 4° C. using dilution as recommended by manufacturer. Membranes were washed three times for a total of 30 minutes and then incubated with secondary antibodies at room temperature in the dark for 1 hour. After another three washes, Odyssey infrared imaging system and companion software (LI-COR biosciences, Lincoln, NE, USA) were used to scan immunoblot membranes and to quantify band intensity according to the manufacturer's instructions. The ratio of proteins of interest to loading control in treated samples was normalized to the corresponding ratio in untreated cells. Antibodies used for immunoblotting were purchased from the following sources: BCL-2 (sc-7382), MCL1- (sc-819) from Santa Cruz Biotechnology (Dallas, TX, USA, Bim (2819), caspase-3 (9664) from Cell Signaling Technology; beta-Actin (A2228) from Sigma-Aldrich; DNMTI (ab188453) from AbCam; TRDye 680 goat anti-rabbit and IRDye 800 goat anti-mouse secondary antibodies (#925-68073 and #925-32212) were purchased from Li-COR Biosciences (Lincoln, NE).

[1] = system: engineered BaF3 cell lines expressing either wild-type FLT3, FLT3-ITD or FLT3 (D835Y); experiment: Cell viability and synergy, panel of engineered BaF3 cell lines; assay type: cell-based; conditions: Mus musculus, FIG. 10A, read-out: EC50 (resistant to venetoclax)
22 AML cell lines = experiment: Cell viability assay, single agents and 5-azacytidine-venetoclax combination, AML cell line panel; conditions: number of 22 AML cell lines
[2] = system: CD11b, CD14, and CD86 surface marker expression; experiment: Flow cytometry of differentiation markers in AML cell lines; assay type: cell-based
Protocol: FACS samples were acquired using BD FACSCanto II. Cell viability was also examined by FACS analysis with Fixable Viability dye 780 (Thermofisher Scientific, Waltham, MA) according to the manufacturer's instructions. Briefly, 10^5 cells were seeded in U bottom 96 well plate, next day treated with 9 doses of CC-90011 (started from 10 uM, 3-fold dilution down), cells were incubated at 37° C. for 6 days and harvested for staining. Cells were washed once with DPBS and stained with 1×FVS780 and washed twice with staining buffer. The samples were stained with 1:200 dilution surface antibodies. Results were then analyzed with FlowJo V10 software (TreeStar Inc., Ashland, OR).

Row | SMILES | EC50 (BaF-FLT3(D835Y)) [nM] | Median survival (MOLM-13 xenograft model) [days] | EC50 (BaF-FLT3(WT)) [nM] | EC50 (BaF-FLT3-ITD) [nM] | Median survival (MV4-11 xenograft models) | further results
1 | CCc1nc(C(N)=O)c(Nc2ccc(N3CCC(N4CCN(C)CC4)CC3)c(OC)c2)nc1NC1CCOCC1 [Gilteritinib] | 1.8 | 34 | 4 | 1.8 | – | –
2 | CO[C@@H]1[C@H](N(C)C(=O)c2ccccc2)C[C@H]2O[C@]1(C)n1c3ccccc3c3c4c(c5c6ccccc6n2c5c31)C(=O)NC4 [Midostaurin] | – | 34 | – | – | 57 | –
3 | COC(=O)C[C@H](NC(=O)[C@H](C)NC(=O)[C@@H](NC(=O)OCc1ccccc1)C(C)C)C(=O)CF [Z-VAD-FMK] (Cbz-Val-Ala-Asp(OMe)-CH2F) | – | – | – | – | – | effect on MCL-1 degradation by 5-azacytidine (MCL-1): partially ablated
4 | CC1(C)CCC(CN2CCN(c3ccc(C(=O)NS(=O)(=O)c4ccc(NCC5CCOCC5)c([N+](=O)[O-])c4)c(Oc4cnc5[nH]ccc5c4)c3)CC2)=C(c2ccc(Cl)cc2)C1 [Venetoclax] | 4330 | 29 | > 10000 | > 10000 | 35.5 | EC50 [1]: > 1000 nM
5 | COc1ccc(-c2c(-c3ccc(C#N)c(F)c3)nc(N3CCC(N)CC3)n(C)c2=O)cc1F [CC-90011, 4-[2-(4-amino-piperidin-1-yl)-5-(3-fluoro-4-methoxy-phenyl)-1-methyl-6-oxo-1,6-dihydro-pyrimidin-4-yl]-2-fluoro-benzonitrile] | – | – | – | – | – | cell lines sensitive to CC-90011 (single agent cytotoxicity) (22 AML cell lines): Eleven; change in differentiation markers ([2]; five cell lines: HEL, KG-1, MOLM-13, KG-1a, and NOMO-1): no changes in any of these differentiation markers; cell lines with increased expression of at least one differentiation marker ([2]; number of 22 AML cell lines following CC-90011 treatment): Seventeen

From US12447171B2 (CELGENE QUANTICEL RESEARCH, INC., priority 2019, dated 2025)
